From patent US20220177508A1, “C10-Cyclic Substituted 13-Membered Macrolides and Uses Thereof” (Zikani Therapeutics, Inc., priority 2018, published 2022)
≈ marks a conversion by molar mass, not a printed value.

How the values were obtained:
Assay type in all cases: cell-based
S. aureus MP-12 = experiment: Broth dilution MIC determination (CLSI), S. aureus MP-12; settings: Staphylococcus aureus, MP12; strain MP-12, broth dilution
E. coli MP-4 = experiment: Broth dilution MIC determination (CLSI), E. coli MP-4; settings: Escherichia coli, MP4; strain MP-4, broth dilution; read-out: MIC E. coli MP-4
K. pneumoniae MP-546 = experiment: Broth dilution MIC determination (CLSI), K. pneumoniae MP-546; settings: Klebsiella pneumoniae, MP546; strain MP-546, broth dilution
P. aeruginosa MP-3 = experiment: Broth dilution MIC determination (CLSI), P. aeruginosa MP-3; settings: Pseudomonas aeruginosa, MP3; strain MP-3, broth dilution
A. baumannii MP-15 = experiment: Broth dilution MIC determination (CLSI), A. baumannii MP-15; settings: Acinetobacter baumannii, MP15; strain MP-15, broth dilution; read-out: MIC A. baumanii MP-15

| SMILES | MIC (S. aureus MP-12) [µg/mL] | MIC (E. coli MP-4) [µg/mL] | MIC (K. pneumoniae MP-546) [µg/mL] | MIC (P. aeruginosa MP-3) [µg/mL] | MIC (A. baumannii MP-15) [µg/mL] |
| --- | --- | --- | --- | --- | --- |
| CO[C@]1(C)C[C@@H](C)CN(C)[C@@H]([C@@H]2CCCNC2)COC(=O)C(C)(C)C(=O)[C@H](C)[C@H]1O[C@@H]1O[C@H](C)C[C@H](N(C)C)[C@H]1O [Compound 53] | 4 to 32 (≈ 6.85 to 54.8 µM) | < 4 | < 4 | > 32 | > 32 |
| CO[C@]1(C)C[C@@H](C)CN(C)[C@@H]([C@H]2CCCN(C(C)C)C2)COC(=O)C(C)(C)C(=O)[C@H](C)[C@H]1O[C@@H]1O[C@H](C)C[C@H](N(C)C)[C@H]1O [Compound 56, (3S,6R,8R,9R,10R)-9-(((2S,3R,4S,6R)-4-(dimethylamino)-3-hydroxy-6-methyltetrahydro-2H-pyran-2-yl)oxy)-3-((S)-1-isopropylpiperidin-3-yl)-8-methoxy-4,6,8,10,12,12-hexamethyl-1-oxa-4-azacyclotridecane-11,13-dione] | > 32 | > 32 | > 32 | > 32 | > 32 |
| CO[C@]1(C)C[C@@H](C)CN(C)[C@@H]([C@H]2CCN(C(C)C)C2)COC(=O)C(C)(C)C(=O)[C@H](C)[C@H]1O[C@@H]1O[C@H](C)C[C@H](N(C)C)[C@H]1O [Compound 57, (3S,6R,8R,9R,10R)-9-(((2S,3R,4S,6R)-4-(Dimethylamino)-3-hydroxy-6-methyltetrahydro-2H-pyran-2-yl)oxy)-3-((S)-1-isopropylpyrrolidin-3-yl)-8-methoxy-4,6,8,10,12,12-hexamethyl-1-oxa-4-azacyclotridecane-11,13-dione] | 4 to 32 (≈ 6.54 to 52.3 µM) | < 4 | 4 to 32 (≈ 6.54 to 52.3 µM) | > 32 | > 32 |
| CO[C@]1(C)C[C@@H](C)CN(C)[C@H](C2CCN(CC(F)F)CC2)COC(=O)C(C)(C)C(=O)[C@H](C)[C@H]1O[C@@H]1O[C@H](C)C[C@H](N(C)C)[C@H]1O [Compound 62, (3R,6R,8R,9R,10R)-3-(1-(2,2-difluoroethyl)piperidin-4-yl)-9-(((2S,3R,4S,6R)-4-(dimethylamino)-3-hydroxy-6-methyltetrahydro-2H-pyran-2-yl)oxy)-8-methoxy-4,6,8,10,12,12-hexamethyl-1-oxa-4-azacyclotridecane-11,13-dione] | 4 to 32 (≈ 6.17 to 49.4 µM) | < 4 | 4 to 32 (≈ 6.17 to 49.4 µM) | > 32 | > 32 |
| CCCN1CCC([C@H]2COC(=O)C(C)(C)C(=O)[C@H](C)[C@@H](O[C@@H]3O[C@H](C)C[C@H](N(C)C)[C@H]3O)[C@](C)(OC)C[C@@H](C)CN2C)CC1 [Compound 63, (3S,6R,8R,9R,10R)-9-(((2S,3R,4S,6R)-4-(dimethylamino)-3-hydroxy-6-methyltetrahydro-2H-pyran-2-yl)oxy)-8-methoxy-4,6,8,10,12,12-hexamethyl-3-(1-propylpiperidin-4-yl)-1-oxa-4-azacyclotridecane-11,13-dione] | 4 to 32 (≈ 6.39 to 51.1 µM) | < 4 | < 4 | > 32 | > 32 |
| CO[C@]1(C)C[C@@H](C)CN(C)[C@@H](C2CCN(C)CC2)COC(=O)C(C)(C)C(=O)[C@H](C)[C@H]1O[C@@H]1O[C@H](C)C[C@H](N(C)C)[C@H]1O [Compound 64, (3S,6R,8R,9R,10R)-9-(((2S,3R,4S,6R)-4-(dimethylamino)-3-hydroxy-6-methyltetrahydro-2H-pyran-2-yl)oxy)-8-methoxy-4,6,8,10,12,12-hexamethyl-3-(1-methylpiperidin-4-yl)-1-oxa-4-azacyclotridecane-11,13-dione] | 4 to 32 (≈ 6.69 to 53.5 µM) | < 4 | < 4 | > 32 | > 32 |
| CO[C@]1(C)C[C@@H](C)CN(C)[C@H]([C@@H]2CCCN2)COC(=O)C(C)(C)C(=O)[C@H](C)[C@H]1O[C@@H]1O[C@H](C)C[C@H](N(C)C)[C@H]1O [Compound 65, (3R,6R,8R,9R,10R)-9-(((2S,3R,4S,6R)-4-(dimethylamino)-3-hydroxy-6-methyltetrahydro-2H-pyran-2-yl)oxy)-8-methoxy-4,6,8,10,12,12-hexamethyl-3-((S)-pyrrolidin-2-yl)-1-oxa-4-azacyclotridecane-11,13-dione] | > 32 | 4 to 32 (≈ 7.02 to 56.2 µM) | > 32 | > 32 | > 32 |
| CO[C@]1(C)C[C@@H](C)CN(C)[C@H](C2CCN(C(=O)CNCC(C)C)CC2)COC(=O)C(C)(C)C(=O)[C@H](C)[C@H]1O[C@@H]1O[C@H](C)C[C@H](N(C)C)[C@H]1O [Compound 66, (3R,6R,8R,9R,10R)-9-(((2S,3R,4S,6R)-4-(dimethylamino)-3-hydroxy-6-methyltetrahydro-2H-pyran-2-yl)oxy)-3-(1-(isobutylglycyl)piperidin-4-yl)-8-methoxy-4,6,8,10,12,12-hexamethyl-1-oxa-4-azacyclotridecane-11,13-dione] | > 32 | < 4 | 4 to 32 (≈ 5.74 to 45.9 µM) | > 32 | > 32 |
| CCCN1C2CCC1CC([C@@H]1COC(=O)C(C)(C)C(=O)[C@H](C)[C@@H](O[C@@H]3O[C@H](C)C[C@H](N(C)C)[C@H]3O)[C@](C)(OC)C[C@@H](C)CN1C)C2 (stereo partly drawn) [Compound 79, (3R,6R,8R,9R,10R)-9-(((2S,3R,4S,6R)-4-(dimethylamino)-3-hydroxy-6-methyltetrahydro-2H-pyran-2-yl)oxy)-8-methoxy-4,6,8,10,12,12-hexamethyl-3-(8-propyl-8-azabicyclo[3.2.1]octan-3-yl)-1-oxa-4-azacyclotridecane-11,13-dione] | < 4 | < 4 | 4 to 32 (≈ 6.14 to 49.1 µM) | > 32 | > 32 |

More lines, now with the values ahead:

| MIC (S. aureus MP-12) [µg/mL] | MIC (E. coli MP-4) [µg/mL] | MIC (K. pneumoniae MP-546) [µg/mL] | MIC (P. aeruginosa MP-3) [µg/mL] | MIC (A. baumannii MP-15) [µg/mL] | SMILES |
| --- | --- | --- | --- | --- | --- |
| > 32 | < 4 | 4 to 32 (≈ 6.11 to 48.9 µM) | > 32 | > 32 | CO[C@]1(C)C[C@@H](C)CN(C)[C@@H]([C@H]2CCN(C(=O)CN(C)C)C2)COC(=O)C(C)(C)C(=O)[C@H](C)[C@H]1O[C@@H]1O[C@H](C)C[C@H](N(C)C)[C@H]1O [Compound 67, (3S,6R,8R,9R,10R)-9-(((2S,3R,4S,6R)-4-(dimethylamino)-3-hydroxy-6-methyltetrahydro-2H-pyran-2-yl)oxy)-3-((S)-1-(dimethylglycyl)pyrrolidin-3-yl)-8-methoxy-4,6,8,10,12,12-hexamethyl-1-oxa-4-azacyclotridecane-11,13-dione] |
| 4 to 32 (≈ 5.98 to 47.8 µM) | < 4 | 4 to 32 (≈ 5.98 to 47.8 µM) | > 32 | > 32 | CCCN1C[C@H](C)C[C@@](C)(OC)[C@H](O[C@@H]2O[C@H](C)C[C@H](N(C)C)[C@H]2O)[C@@H](C)C(=O)C(C)(C)C(=O)OC[C@H]1C1CN(C(=O)CN(C)C)C1 [Compound 68, (3R,6R,8R,9R,10R)-9-(((2S,3R,4S,6R)-4-(dimethylamino)-3-hydroxy-6-methyltetrahydro-2H-pyran-2-yl)oxy)-3-(1-(dimethylglycyl)azetidin-3-yl)-8-methoxy-6,8,10,12,12-pentamethyl-4-propyl-1-oxa-4-azacyclotridecane-11,13-dione] |
| 4 to 32 (≈ 6.39 to 51.1 µM) | < 4 | 4 to 32 (≈ 6.39 to 51.1 µM) | > 32 | > 32 | CCN1C[C@H](C)C[C@@](C)(OC)[C@H](O[C@@H]2O[C@H](C)C[C@H](N(C)C)[C@H]2O)[C@@H](C)C(=O)C(C)(C)C(=O)OC[C@H]1C1CN(CC(C)C)C1 [Compound 70, (3R,6R,8R,9R,10R)-9-(((2S,3R,4S,6R)-4-(dimethylamino)-3-hydroxy-6-methyltetrahydro-2H-pyran-2-yl)oxy)-4-ethyl-3-(1-isobutylazetidin-3-yl)-8-methoxy-6,8,10,12,12-pentamethyl-1-oxa-4-azacyclotridecane-11,13-dione] |
| 4 to 32 (≈ 6.27 to 50.2 µM) | 4 to 32 (≈ 6.27 to 50.2 µM) | < 4 | > 32 | 4 to 32 (≈ 6.27 to 50.2 µM) | CO[C@]1(C)C[C@@H](C)CN(C)[C@H](C2CN(C3CCCCC3)C2)COC(=O)C(C)(C)C(=O)[C@H](C)[C@H]1O[C@@H]1O[C@H](C)C[C@H](N(C)C)[C@H]1O [Compound 73, (3R,6R,8R,9R,10R)-3-(1-cyclohexylazetidin-3-yl)-9-(((2S,3R,4S,6R)-4-(dimethylamino)-3-hydroxy-6-methyltetrahydro-2H-pyran-2-yl)oxy)-8-methoxy-4,6,8,10,12,12-hexamethyl-1-oxa-4-azacyclotridecane-11,13-dione] |
| > 32 | < 4 | 4 to 32 (≈ 5.86 to 46.9 µM) | > 32 | > 32 | CCN(CC)[C@H](C)C(=O)N1CC([C@H]2COC(=O)C(C)(C)C(=O)[C@H](C)[C@@H](O[C@@H]3O[C@H](C)C[C@H](N(C)C)[C@H]3O)[C@](C)(OC)C[C@@H](C)CN2C)C1 [Compound 74, (3S,6R,8R,9R,10R)-3-(1-(diethyl-D-alanyl)azetidin-3-yl)-9-(((2S,3R,4S,6R)-4-(dimethylamino)-3-hydroxy-6-methyltetrahydro-2H-pyran-2-yl)oxy)-8-methoxy-4,6,8,10,12,12-hexamethyl-1-oxa-4-azacyclotridecane-11,13-dione] |
| 4 to 32 (≈ 6.69 to 53.5 µM) | < 4 | < 4 | > 32 | > 32 | CCCN1CC([C@@H]2COC(=O)C(C)(C)C(=O)[C@H](C)[C@@H](O[C@@H]3O[C@H](C)C[C@H](N(C)C)[C@H]3O)[C@](C)(OC)C[C@@H](C)CN2C)C1 [Compound 76, (3R,6R,8R,9R,10R)-9-(((2S,3R,4S,6R)-4-(dimethylamino)-3-hydroxy-6-methyltetrahydro-2H-pyran-2-yl)oxy)-8-methoxy-4,6,8,10,12,12-hexamethyl-3-(1-propylazetidin-3-yl)-1-oxa-4-azacyclotridecane-11,13-dione] |
| > 32 | 4 to 32 (≈ 6.85 to 54.8 µM) | 4 to 32 (≈ 6.85 to 54.8 µM) | > 32 | > 32 | CO[C@]1(C)C[C@@H](C)CN(C)[C@H]([C@@H]2CCCNC2)COC(=O)C(C)(C)C(=O)[C@H](C)[C@H]1O[C@@H]1O[C@H](C)C[C@H](N(C)C)[C@H]1O [Compound 77] |
